# Test results: the supplement of paper PMC10307832
# Legend:
# Test in all cases: relative viability (nuclei count vs DMSO), 5 days (fraction); higher = more cells survive
# [1] = test system: BEN
# Outline: (§1)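 Five library-drug doses in √10 steps were combined with a fixed anchor-drug dose, or a single drug was given alone, by pin tool to lung cancer cell lines in 1536-well plates the day after seeding. Nuclei were stained and counted after 5 days. Relative viability is the nuclei count in treated wells over that in vehicle wells, taken as the median of duplicate plates.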
# [2] = test system: NCI-H1355
# Outline: as §1
# [3] = test system: LCLC-97TM1
# Outline: as §1
# [4] = test system: LU99A
# Outline: as §1
# [5] = test system: NCI-H661
# Outline: as §1
# [6] = test system: NCI-H460
# Outline: as §1
# [7] = test system: HCC-78
# Outline: as §1
# [8] = test system: NCI-H322M
# Outline: as §1
# [9] = test system: NCI-H2342
# Outline: as §1
# [10] = test system: NCI-H2126
# Outline: as §1
# [11] = test system: HCC-15
# Outline: as §1
# [12] = test system: NCI-H2228
# Outline: as §1
# [13] = test system: NCI-H1395
# Outline: as §1
# [14] = test system: 201T
# Outline: as §1
# [15] = test system: NCI-H2009
# Outline: as §1
# [16] = test system: NCI-H838
# Outline: as §1
# [17] = test system: NCI-H647
# Outline: as §1
# [18] = test system: NCI-H23
# Outline: as §1
# [19] = test system: NCI-H2085
# Outline: as §1
# [20] = test system: NCI-H650
# Outline: as §1
# [21] = test system: EPLC-272H
# Outline: as §1
# [22] = test system: PC-14
# Outline: as §1
# [23] = test system: NCI-H2405
# Outline: as §1
compound,measurement,setting,value
CN1CCN(CCOc2cc(OC3CCOCC3)c3c(Nc4c(Cl)ccc5c4OCO5)ncnc3c2)CC1 [Saracatinib] + COc1cccc2cc(-c3nc([C@H]4CC[C@H](C(=O)O)CC4)n4ncnc(N)c34)[nH]c12 [OSI-027] (partner 0.5 µM),relative viability,[1]; first compound 0.02 µM,0.284
same,relative viability,[1]; first compound 0.6325 µM,0.309
same,relative viability,[1]; first compound 2 µM,0.261
same,relative viability,[2]; first compound 0.02 µM,0.482
same,relative viability,[2]; first compound 0.2 µM,0.379
same,relative viability,[2]; first compound 0.6325 µM,0.427
same,relative viability,[2]; first compound 2 µM,0.323
same,relative viability,[3]; first compound 0.02 µM,0.696
same,relative viability,[3]; first compound 0.2 µM,0.221
same,relative viability,[3]; first compound 0.6325 µM,0.7
same,relative viability,[3]; first compound 2 µM,0.505
same,relative viability,[4]; first compound 0.02 µM,0.317
same,relative viability,[4]; first compound 0.2 µM,0.283
same,relative viability,[4]; first compound 0.6325 µM,0.303
same,relative viability,[4]; first compound 2 µM,0.277
same,relative viability,[5]; first compound 0.02 µM,0.707
same,relative viability,[5]; first compound 0.2 µM,0.655
same,relative viability,[5]; first compound 0.6325 µM,0.502
same,relative viability,[5]; first compound 2 µM,0.467
same,relative viability,[6]; first compound 0.02 µM,0.656
same,relative viability,[6]; first compound 0.2 µM,0.394
same,relative viability,[6]; first compound 0.6325 µM,0.623
same,relative viability,[6]; first compound 2 µM,0.376
same,relative viability,[7]; first compound 0.02 µM,0.426
same,relative viability,[7]; first compound 0.6325 µM,0.379
same,relative viability,[7]; first compound 2 µM,0.317
same,relative viability,[8]; first compound 0.02 µM,0.56
same,relative viability,[8]; first compound 0.2 µM,0.499
same,relative viability,[8]; first compound 0.6325 µM,0.449
same,relative viability,[8]; first compound 2 µM,0.275
same,relative viability,[9]; first compound 0.02 µM,0.689
same,relative viability,[9]; first compound 0.2 µM,0.702
same,relative viability,[9]; first compound 0.6325 µM,0.64
same,relative viability,[9]; first compound 2 µM,0.637
same,relative viability,[10]; first compound 0.02 µM,0.8
same,relative viability,[10]; first compound 0.2 µM,0.672
same,relative viability,[10]; first compound 0.6325 µM,0.662
same,relative viability,[10]; first compound 2 µM,0.589
same,relative viability,[11]; first compound 0.02 µM,0.806
same,relative viability,[11]; first compound 0.2 µM,0.586
same,relative viability,[11]; first compound 0.6325 µM,0.708
same,relative viability,[11]; first compound 2 µM,0.605
same,relative viability,[12]; first compound 0.02 µM,0.719
same,relative viability,[12]; first compound 0.2 µM,0.343
same,relative viability,[12]; first compound 0.6325 µM,0.529
same,relative viability,[12]; first compound 2 µM,0.381
same,relative viability,[13]; first compound 0.02 µM,0.618
same,relative viability,[13]; first compound 0.2 µM,0.613
same,relative viability,[13]; first compound 0.6325 µM,0.583
same,relative viability,[13]; first compound 2 µM,0.485
same,relative viability,[14]; first compound 0.02 µM,0.725
same,relative viability,[14]; first compound 0.2 µM,0.53
same,relative viability,[14]; first compound 0.6325 µM,0.752
same,relative viability,[14]; first compound 2 µM,0.445
same,relative viability,[15]; first compound 0.02 µM,0.628
same,relative viability,[15]; first compound 0.2 µM,0.547
same,relative viability,[15]; first compound 0.6325 µM,0.579
same,relative viability,[15]; first compound 2 µM,0.357
same,relative viability,[16]; first compound 0.02 µM,0.348
same,relative viability,[16]; first compound 0.2 µM,0.302
same,relative viability,[16]; first compound 0.6325 µM,0.401
same,relative viability,[16]; first compound 2 µM,0.235
same,relative viability,[17]; first compound 0.02 µM,0.584
same,relative viability,[17]; first compound 0.2 µM,0.65
same,relative viability,[17]; first compound 0.6325 µM,0.637
same,relative viability,[17]; first compound 2 µM,0.381
same,relative viability,[18]; first compound 0.02 µM,0.649
same,relative viability,[18]; first compound 0.2 µM,0.425
same,relative viability,[18]; first compound 0.6325 µM,0.659
same,relative viability,[18]; first compound 2 µM,0.503
same,relative viability,[19]; first compound 0.02 µM,0.839
same,relative viability,[19]; first compound 0.2 µM,0.723
same,relative viability,[19]; first compound 0.6325 µM,0.772
same,relative viability,[19]; first compound 2 µM,0.78
same,relative viability,[20]; first compound 0.02 µM,0.602
same,relative viability,[20]; first compound 0.2 µM,0.504
same,relative viability,[20]; first compound 0.6325 µM,0.524
same,relative viability,[20]; first compound 2 µM,0.493
same,relative viability,[21]; first compound 0.02 µM,0.304
same,relative viability,[21]; first compound 0.2 µM,0.27
same,relative viability,[21]; first compound 0.6325 µM,0.348
same,relative viability,[21]; first compound 2 µM,0.278
same,relative viability,[22]; first compound 0.02 µM,0.81
same,relative viability,[22]; first compound 0.2 µM,0.406
same,relative viability,[22]; first compound 0.6325 µM,0.151
same,relative viability,[22]; first compound 2 µM,0.0888
same,relative viability,[23]; first compound 0.02 µM,0.647
same,relative viability,[23]; first compound 0.2 µM,0.62
same,relative viability,[23]; first compound 0.6325 µM,0.649
same,relative viability,[23]; first compound 2 µM,0.38
CN1CCN(CCOc2cc(OC3CCOCC3)c3c(Nc4c(Cl)ccc5c4OCO5)ncnc3c2)CC1 [Saracatinib] + O=C(CCCCCCC(=O)Nc1ccccc1)NO [Vorinostat] (partner 1 µM),relative viability,[1]; first compound 0.02 µM,0.54
same,relative viability,[1]; first compound 0.2 µM,0.57
same,relative viability,[1]; first compound 0.6325 µM,0.54
same,relative viability,[1]; first compound 2 µM,0.576
same,relative viability,[2]; first compound 0.02 µM,0.668
same,relative viability,[2]; first compound 0.2 µM,0.62
same,relative viability,[2]; first compound 0.6325 µM,0.7
same,relative viability,[2]; first compound 2 µM,0.587
same,relative viability,[3]; first compound 0.02 µM,0.775
same,relative viability,[3]; first compound 0.2 µM,0.411
same,relative viability,[3]; first compound 0.6325 µM,0.839
same,relative viability,[3]; first compound 2 µM,0.554
same,relative viability,[4]; first compound 0.02 µM,0.445
same,relative viability,[4]; first compound 0.2 µM,0.339
same,relative viability,[4]; first compound 0.6325 µM,0.418
same,relative viability,[4]; first compound 2 µM,0.404
same,relative viability,[5]; first compound 0.02 µM,0.798
same,relative viability,[5]; first compound 0.2 µM,0.808
same,relative viability,[5]; first compound 0.6325 µM,0.81
same,relative viability,[5]; first compound 2 µM,0.693
same,relative viability,[6]; first compound 0.02 µM,0.735
same,relative viability,[6]; first compound 0.2 µM,0.591
same,relative viability,[6]; first compound 0.6325 µM,0.677
same,relative viability,[6]; first compound 2 µM,0.604
same,relative viability,[7]; first compound 0.02 µM,0.459
same,relative viability,[7]; first compound 0.6325 µM,0.476
same,relative viability,[7]; first compound 2 µM,0.427
same,relative viability,[8]; first compound 0.02 µM,0.73
same,relative viability,[8]; first compound 0.2 µM,0.744
same,relative viability,[8]; first compound 0.6325 µM,0.702
same,relative viability,[8]; first compound 2 µM,0.37
same,relative viability,[9]; first compound 0.02 µM,0.774
same,relative viability,[9]; first compound 0.2 µM,0.747
same,relative viability,[9]; first compound 0.6325 µM,0.782
same,relative viability,[9]; first compound 2 µM,0.833
same,relative viability,[10]; first compound 0.02 µM,0.936
same,relative viability,[10]; first compound 0.2 µM,0.647
same,relative viability,[10]; first compound 0.6325 µM,0.713
same,relative viability,[10]; first compound 2 µM,0.539
same,relative viability,[11]; first compound 0.02 µM,0.902
same,relative viability,[11]; first compound 0.2 µM,0.859
same,relative viability,[11]; first compound 0.6325 µM,0.931
same,relative viability,[11]; first compound 2 µM,0.861
same,relative viability,[12]; first compound 0.02 µM,0.8
same,relative viability,[12]; first compound 0.2 µM,0.6
same,relative viability,[12]; first compound 0.6325 µM,0.611
same,relative viability,[12]; first compound 2 µM,0.633
same,relative viability,[13]; first compound 0.02 µM,0.766
same,relative viability,[13]; first compound 0.2 µM,0.632
same,relative viability,[13]; first compound 0.6325 µM,0.706
same,relative viability,[13]; first compound 2 µM,0.464
same,relative viability,[14]; first compound 0.02 µM,0.971
same,relative viability,[14]; first compound 0.2 µM,0.868
same,relative viability,[14]; first compound 0.6325 µM,0.799
same,relative viability,[14]; first compound 2 µM,0.658
same,relative viability,[15]; first compound 0.02 µM,0.754
same,relative viability,[15]; first compound 0.2 µM,0.653
same,relative viability,[15]; first compound 0.6325 µM,0.677
same,relative viability,[15]; first compound 2 µM,0.744
same,relative viability,[16]; first compound 0.02 µM,0.685
same,relative viability,[16]; first compound 0.2 µM,0.681
same,relative viability,[16]; first compound 0.6325 µM,0.721
same,relative viability,[16]; first compound 2 µM,0.765
same,relative viability,[17]; first compound 0.02 µM,0.612
same,relative viability,[17]; first compound 0.2 µM,0.499
same,relative viability,[17]; first compound 0.6325 µM,0.532
same,relative viability,[17]; first compound 2 µM,0.45
same,relative viability,[18]; first compound 0.02 µM,0.539
same,relative viability,[18]; first compound 0.6325 µM,0.658
same,relative viability,[18]; first compound 2 µM,0.442
same,relative viability,[19]; first compound 0.02 µM,0.816
same,relative viability,[19]; first compound 0.2 µM,0.694
same,relative viability,[19]; first compound 0.6325 µM,0.896
same,relative viability,[19]; first compound 2 µM,0.815
same,relative viability,[20]; first compound 0.02 µM,0.5
same,relative viability,[20]; first compound 0.2 µM,0.365
same,relative viability,[20]; first compound 0.6325 µM,0.384
same,relative viability,[20]; first compound 2 µM,0.857
same,relative viability,[21]; first compound 0.02 µM,0.306
same,relative viability,[21]; first compound 0.2 µM,0.562
same,relative viability,[21]; first compound 0.6325 µM,0.63
same,relative viability,[21]; first compound 2 µM,0.424
same,relative viability,[22]; first compound 0.02 µM,0.759
same,relative viability,[22]; first compound 0.2 µM,0.247
same,relative viability,[22]; first compound 0.6325 µM,0.163
same,relative viability,[22]; first compound 2 µM,0.0854
same,relative viability,[23]; first compound 0.02 µM,0.89
same,relative viability,[23]; first compound 0.2 µM,0.788
same,relative viability,[23]; first compound 0.6325 µM,0.847
same,relative viability,[23]; first compound 2 µM,0.441
